ChEMBL document CHEMBL5108067, “Discovery of Potent OTUB1/USP8 Dual Inhibitors Targeting Proteostasis in Non-Small-Cell Lung Cancer” (J Med Chem, 2022)

What was measured:
[1] = target: T1, Ubiquitin carboxyl-terminal hydrolase 1 (Homo sapiens, UniProt O94782); test: Inhibition of USP1 (unknown origin) using Ub-Rho measured after 0.5 to 3 hrs
T1 sequence (O94782 whole entry): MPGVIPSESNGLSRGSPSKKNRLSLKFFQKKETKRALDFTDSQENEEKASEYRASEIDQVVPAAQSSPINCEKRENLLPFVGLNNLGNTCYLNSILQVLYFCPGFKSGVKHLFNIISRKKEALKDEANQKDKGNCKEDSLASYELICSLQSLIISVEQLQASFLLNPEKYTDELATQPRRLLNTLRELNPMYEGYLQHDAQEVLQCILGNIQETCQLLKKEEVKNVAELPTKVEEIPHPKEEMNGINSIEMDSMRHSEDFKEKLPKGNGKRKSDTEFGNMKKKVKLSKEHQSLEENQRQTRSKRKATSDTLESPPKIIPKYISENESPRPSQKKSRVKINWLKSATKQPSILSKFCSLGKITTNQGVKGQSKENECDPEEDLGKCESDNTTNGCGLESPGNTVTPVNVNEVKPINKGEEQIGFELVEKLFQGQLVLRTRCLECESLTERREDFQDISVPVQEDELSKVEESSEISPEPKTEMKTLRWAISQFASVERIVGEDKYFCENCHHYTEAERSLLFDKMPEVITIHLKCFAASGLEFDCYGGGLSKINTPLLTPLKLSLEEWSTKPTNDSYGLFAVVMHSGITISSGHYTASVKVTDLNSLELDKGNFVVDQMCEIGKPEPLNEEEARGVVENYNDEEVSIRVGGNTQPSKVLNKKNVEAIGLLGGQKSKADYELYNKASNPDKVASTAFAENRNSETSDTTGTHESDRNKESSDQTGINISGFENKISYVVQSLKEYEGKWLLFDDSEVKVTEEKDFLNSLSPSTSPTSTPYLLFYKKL

[2] = target: T2, Ubiquitin carboxyl-terminal hydrolase 8 (Homo sapiens, UniProt P40818); test: Inhibition of N-terminal His-6 tagged USP8 (734 to 1110 residues) (unknown origin) expressed in Escherichia coli BL21 (DE3) cells measured after 3 hrs by fluorescence based Plate reader method
T2 sequence (P40818 whole entry): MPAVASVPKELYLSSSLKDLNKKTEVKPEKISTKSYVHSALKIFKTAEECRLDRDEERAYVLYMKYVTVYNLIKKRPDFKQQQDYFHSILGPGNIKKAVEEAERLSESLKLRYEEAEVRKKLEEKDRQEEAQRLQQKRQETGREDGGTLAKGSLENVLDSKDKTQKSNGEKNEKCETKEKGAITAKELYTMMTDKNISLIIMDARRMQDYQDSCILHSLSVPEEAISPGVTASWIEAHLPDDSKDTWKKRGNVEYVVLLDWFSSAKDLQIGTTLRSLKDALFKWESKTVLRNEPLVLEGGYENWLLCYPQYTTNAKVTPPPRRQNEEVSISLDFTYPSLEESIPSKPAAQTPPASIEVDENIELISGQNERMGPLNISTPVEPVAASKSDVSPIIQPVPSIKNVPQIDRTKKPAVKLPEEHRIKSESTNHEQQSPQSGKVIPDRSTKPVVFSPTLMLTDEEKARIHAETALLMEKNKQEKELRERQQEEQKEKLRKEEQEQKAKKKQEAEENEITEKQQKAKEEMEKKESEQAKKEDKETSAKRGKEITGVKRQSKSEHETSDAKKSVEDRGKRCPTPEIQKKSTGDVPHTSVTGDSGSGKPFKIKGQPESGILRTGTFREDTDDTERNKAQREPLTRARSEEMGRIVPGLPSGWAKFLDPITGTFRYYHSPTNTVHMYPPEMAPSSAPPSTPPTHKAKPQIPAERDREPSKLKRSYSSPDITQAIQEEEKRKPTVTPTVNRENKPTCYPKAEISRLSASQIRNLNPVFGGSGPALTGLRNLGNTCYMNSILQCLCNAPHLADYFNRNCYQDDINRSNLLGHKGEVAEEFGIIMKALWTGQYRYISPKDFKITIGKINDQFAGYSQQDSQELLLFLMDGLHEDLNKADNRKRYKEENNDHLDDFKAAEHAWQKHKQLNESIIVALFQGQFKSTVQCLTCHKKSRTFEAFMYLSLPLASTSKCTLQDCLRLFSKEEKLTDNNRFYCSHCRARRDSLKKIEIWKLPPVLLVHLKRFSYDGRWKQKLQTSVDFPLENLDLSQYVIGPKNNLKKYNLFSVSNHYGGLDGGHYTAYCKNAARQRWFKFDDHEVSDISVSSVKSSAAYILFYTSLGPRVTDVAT

[3] = target: T3, Ubiquitin thioesterase OTUB1 (Homo sapiens, UniProt Q96FW1); test: Inhibition of N-terminal His-6 tagged OTUB1 (40 to 271 residues) (unknown origin) expressed in Escherichia coli BL21 (DE3) cells using Ub-Rho measured after 0.5 to 3 hrs by fluorescence based Plate reader method
[4] = target: T4, Ubiquitin carboxyl-terminal hydrolase 8 (Homo sapiens) (UniProt P40818); test: Inhibition of N-terminal His-6 tagged USP8 (734 to 1110 residues) (unknown origin) expressed in Escherichia coli BL21 (DE3) cells at 10 nM measured after 3 hrs by fluorescence based Plate reader method relative to control; conditions: values are per cent of control
T4 sequence (whole entry): T2 sequence (P40818 whole entry)

[5] = Aqueous solubility of the compound measured after 24 hr by […] LC-MS/MS analysis; format: physicochemical; conditions: buffer
[6] = target: T3, Ubiquitin thioesterase OTUB1; test: Inhibition of N-terminal His-6 tagged OTUB1 (40 to 271 residues) (unknown origin) expressed in Escherichia coli BL21 (DE3) cells at 10 nM using Ub-Rho measured after 0.5 to 3 hrs by fluorescence based Plate reader method relative to control; conditions: time 0.5-3 hrs, values are per cent of control
NCI-H1703 = test: Antiproliferative activity against human NCI-H1703 cells harboring wild type KRAS incubated for 72 hrs by MTT assay; format: functional, cell-based; conditions: NCI-H1703, 72 h

T3 sequence (Q96FW1 whole entry, the tested form may be a part): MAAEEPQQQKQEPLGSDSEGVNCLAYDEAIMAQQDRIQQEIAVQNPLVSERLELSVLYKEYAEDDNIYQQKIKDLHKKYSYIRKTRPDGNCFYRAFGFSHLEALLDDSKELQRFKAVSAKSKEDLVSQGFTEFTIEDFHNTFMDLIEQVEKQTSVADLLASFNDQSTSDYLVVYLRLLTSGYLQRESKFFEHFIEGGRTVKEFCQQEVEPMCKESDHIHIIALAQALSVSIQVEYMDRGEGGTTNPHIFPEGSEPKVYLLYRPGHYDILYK

IC50 [1]	IC50 [2]	IC50 [3]	residual activity [4]	solubility [5]	residual activity [6]	IC50 (NCI-H1703)	Compound
1900 nM	1.27 nM	7.1 nM	35.8%	Soluble	28.9%	113 nM	CN1CC[C@@H](Oc2ccc(Cl)c(-c3nc4c(o3)C(=O)c3ccccc3C4=O)c2)C1
2100 nM	2 nM	0.42 nM	37.2%	Soluble	10.7%	173 nM	CN1CC[C@@H](Oc2ccc(Cl)c(-c3nc4c(o3)C(=O)c3ccccc3C4=O)c2F)C1
990 nM	2.7 nM	1.7 nM	43.4%		42.4%	93 nM	O=C1c2ccccc2C(=O)c2oc(-c3cccnc3)nc21
1370 nM	0.28 nM	0.17 nM	21.7%	Soluble	10.5%	145 nM	CN1CC[C@@H](Oc2ccc(F)c(-c3nc4c(o3)C(=O)c3ccccc3C4=O)c2Cl)C1
